From patent US10865203B2, “Ligands selective to alpha 6 subunit-containing GABAA receptors and their methods of use” (UWM Research Foundation, Inc., priority 2015, dated 2020)
Entries after “also recorded” stand apart in the source; their conditions may differ.

Legend:
[1] = system: METH-impaired PPI in C57/B6 mice; experiment: PPI test, methamphetamine-impaired prepulse inhibition; type: in vivo, mouse; settings: for rescue of METH-impaired PPI: mice, compound 10 mg/kg i.p. 15 min before METH 2 mg/kg i.p.
Procedure: All animal experiments conducted at NTU were approved by the Institutional Animal Care and Use Committee of College of Medicine, National Taiwan University. C57/B6 (8-10 weeks) mice were used for the PPI test and Wistar rats (8-9 weeks) were used in the migraine model. Animals were housed in an animal room with a 12-h light/12-h dark cycle and free access to food and water.
The PPI test was conducted with a PPI apparatus (SR-LAB, San Diego Instruments, San Diego, Calif.) consisting of a startle chamber equipped with various programming acoustic stimulations. After acclimation, the mouse was gently placed in the startle chamber for a 4 min acclimation period with a background noise of 65 dB, which continued throughout the whole PPI test session. One PPI test session consisted of 4 types of startle trials, including the trial with the startle pulse (115 dB) alone (PULSEALONE; 115 dB, 20 ms), two trials with the startle pulse paired with 71 and 77 dB prepulses, respectively (PREPULSE+PULSE; 71 dB+115 dB and 77 dB+115 dB), and the trial without stimulus (NOSTIM; background 65 dB only). A test session started and ended, respectively, with four NOSTIM trials and four PULSEALONE trials. In between, each of the four types of trials was presented 14 times randomly, that is, 56 trials were given in a test session. The intertrial interval was given randomly from 5 to 20 s. In the PREPULSE+PULSE trial, a 71 or 77 dB prepulse was given 120 ms before the 115 dBpulse. The magnitude of PPI (PPI %) was determined, after summarizing the startle responses in PULSEALONE and PREPULSE+PULSE trials, according to the equation (PULSEALON−PREPULSE+PULSE)/PULSEALONE×100%. The tested compound or vehicle was given to the animal for 15 min, followed by methamphetamine (2 mg/kg). The PPI test was conducted 10 min after injection of methamphetamine. Data were expressed as the mean±S.E.M. Statistical comparisons among groups were analyzed by ANOVA with Tukey post hoc test, and differences between groups were analyzed by Student's t-test. Two-way ANOVA with Bonferroni's post hoc test was used to analyze differences in the time courses of locomotor activity among groups. Differences were considered significant if P<0.05.
Methamphetamine and apomorphine were dissolved in normal saline for i.p. And s.c. Injections, respectively. Tested compounds and haloperidol, when given by i.p. Injection, were dissolved in a vehicle containing 20% dmso, 20% Cremophor® el (polyoxyethylene castor, sigma-aldrich) and 60% normal saline. Furosemide was dissolved (20 nmole/μL) in dimethylsulfoxide for intra-cerebellar microinjection the i.p. or s.c. Injection volume was 10 mL/kg.

[2] = Microsomal stability assay, human liver microsomes; type: in vitro ADME; settings: 10 μM test compound, 0.5 mg/mL protein, 37° C.
Procedure: (§1) 4 μL of 1 mM test compound at a final concentration of 10 μM dissolved in DMSO/ACN/Methanol/Ethanol was preincubated at 37° C. for 5 minutes on a digital heating shaking dry bath (Fischer scientific, Pittsburgh, Pa.) in a mixture containing 282 μL of water, 80 μL of phosphate buffer (0.5 M, pH 7.4), 20 μL of NADPH Regenerating System Solution A (BD Bioscience, San Jose, Calif.) and 4 μL of NADPH Regenerating System Solution B (BD Bioscience, San Jose, Calif.) in a total volume of 391.2 μL. Following preincubation, the reaction was initiated by addition of 8.8 μL of either human liver microsomes (BD Gentest, San Jose, Calif.), mouse liver microsomes (Life technologies, Rockford, Ill.), at a protein concentration of 0.5 mg/mL. Aliquots of 50 μL were taken at time intervals of 0 (without microsomes), 10, 20, 30, 40, 50 and 60 minutes. Each aliquot was added to 100 μL of cold acetonitrile solution containing 1 μM/2 μM internal standard. This was followed by sonication for 10 seconds and centrifugation at 10,000 rpm for 5 minutes. 100 μL of the supernatant was transferred into Spin-X HPLC filter tubes (Corning Incorporated, NY) and centrifuged at 13,000 rpm for 5 minutes. […] The ratio of the peak areas of the internal standard and test compound was calculated for every time point and the natural log of the ratio were plotted against time to determine the linear slope (k). […] All experiments were repeated three times in duplicates.

α6β3γ2 receptor = target: T1, α6β3γ2 receptor (Rattus norvegicus, UniProt P30191+P63079); experiment: Electrophysiology in Xenopus oocytes, modulation of GABA currents; type: cell-based; settings: modulation of GABA EC3 currents
T1 construct: expressed in transfected cells; host or cells: Xenopus laevis oocytes injected with subunit mRNA (3:1:5)
Procedure: Mature female Xenopus laevis (Nasco, Fort Atkinson, Wis., USA) were anaesthetized in a bath of ice-cold 0.17% Tricain (Ethyl-m-aminobenzoat, Sigma-Aldrich, St. Louis, Mo., USA) before decapitation and transfer of the frog's ovary to ND96 medium (96 mM NaCl, 2 mM KCl, 1 mM MgCl2, 5 mM HEPES; pH 7.5). Following incubation in 1 mg/mL collagenase (Sigma-Aldrich, St. Louis, Mo., USA) for 30 min, stage 5 to 6 oocytes were singled out of the ovary and defolliculated using a platinum wire loop. Oocytes were stored and incubated at 18° C. in NDE medium (96 mM NaCl, 2 mM KCl, 1 mM MgCl2, 5 mM HEPES, 1.8 mM CaCl2; pH 7.5) that was supplemented with 100 U per mL-1 penicillin, 100 μg per mL-1 streptomycin and 2.5 mM pyruvate. Oocytes were injected with an aqueous solution of mRNA. A total of 2.5 ng of mRNA per oocyte was injected. Subunit ratio was 1:1:5 for αxβγ2 (x=1, 2, 3, 5) and 3:1:5 for α4/6β3γ2 and αβδ receptors. Injected oocytes were incubated for at least 36 h before electrophysiological recordings. Oocytes were placed on a nylon-grid in a bath of NDE medium. For current measurements, the oocytes were impaled with two microelectrodes (2-3MΩ), which were filled with 2 M KCl. The oocytes were constantly washed by a flow of 6 mL per min-1 NDE that could be switched to NDE containing GABA and/or drugs. Drugs were diluted into NDE from DMSO solutions resulting in a final concentration of 0.1% DMSO. […] To test for modulation of GABA induced currents by compounds, a GABA concentration that was titrated to trigger 3-5% of the respective maximum GABA-elicited current of the individual oocyte (EC3-5) was applied to the cell together with various concentrations of tested compounds. All recordings were performed at room temperature at a holding potential of −60 mV using a Warner OC-725C TEV (Warner Instrument, Hamden, Conn., USA) or a Dagan CA-1B Oocyte Clamp or a Dagan TEV-200A TEV (Dagan Corporation, Mineapolis, Minn., USA). Data were digitized using a Digidata 1322A or 1550 data acquisition system (Axon Instruments, Union City, Calif., USA), recorded using Clampex 10.5 software (Molecular Devices, Sunnyvale, Calif., USA), and analyzed using Clampfit 10.5 and GraphPad Prism 6.0 (La Jolla, Calif., USA) software. Concentration-response data were fitted using the Hill equation. Data are given as mean±SEM from at least three oocytes of two batches.
For selected test compounds full dose response curves were recorded in α1-6β3γ2 receptors. For selected compounds, dose response curves in additional receptor subtypes (α1, 4, 6β3δ, α6β1, 2γ2, α1-6β3) were also obtained. For a wider panel of compounds, a two point screening pharmacology was obtained at 1 and 10 μM compound concentrations.

[3] = Microsomal stability assay, mouse liver microsomes; type: in vitro ADME; settings: 10 μM test compound, 0.5 mg/mL protein, 37° C.
Procedure: as §1

T1 sequence (P30191 20-453): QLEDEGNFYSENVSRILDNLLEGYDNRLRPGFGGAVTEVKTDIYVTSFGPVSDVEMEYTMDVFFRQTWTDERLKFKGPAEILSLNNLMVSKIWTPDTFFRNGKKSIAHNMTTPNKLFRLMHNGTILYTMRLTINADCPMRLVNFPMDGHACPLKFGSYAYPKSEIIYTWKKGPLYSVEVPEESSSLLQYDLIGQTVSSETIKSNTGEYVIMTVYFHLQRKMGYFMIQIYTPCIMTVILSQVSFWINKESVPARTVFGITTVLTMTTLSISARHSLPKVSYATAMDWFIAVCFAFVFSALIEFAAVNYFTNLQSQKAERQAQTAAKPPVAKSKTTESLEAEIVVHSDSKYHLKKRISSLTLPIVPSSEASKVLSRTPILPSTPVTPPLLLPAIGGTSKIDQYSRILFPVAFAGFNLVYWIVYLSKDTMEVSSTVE
T1 sequence (P63079 26-473): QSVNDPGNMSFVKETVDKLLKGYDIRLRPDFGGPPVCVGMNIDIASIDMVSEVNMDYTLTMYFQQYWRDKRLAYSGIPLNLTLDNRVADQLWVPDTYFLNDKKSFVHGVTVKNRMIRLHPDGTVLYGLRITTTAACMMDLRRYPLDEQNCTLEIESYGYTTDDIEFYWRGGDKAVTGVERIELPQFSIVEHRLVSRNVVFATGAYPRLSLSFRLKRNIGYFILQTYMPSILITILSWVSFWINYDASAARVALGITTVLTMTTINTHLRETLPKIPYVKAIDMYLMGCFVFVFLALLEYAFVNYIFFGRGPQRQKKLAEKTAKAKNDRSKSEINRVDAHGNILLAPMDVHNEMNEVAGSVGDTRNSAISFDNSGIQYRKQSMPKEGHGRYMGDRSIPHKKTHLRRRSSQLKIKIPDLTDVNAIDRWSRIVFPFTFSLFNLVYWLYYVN
T1 sequence (P18508 39-466 partner): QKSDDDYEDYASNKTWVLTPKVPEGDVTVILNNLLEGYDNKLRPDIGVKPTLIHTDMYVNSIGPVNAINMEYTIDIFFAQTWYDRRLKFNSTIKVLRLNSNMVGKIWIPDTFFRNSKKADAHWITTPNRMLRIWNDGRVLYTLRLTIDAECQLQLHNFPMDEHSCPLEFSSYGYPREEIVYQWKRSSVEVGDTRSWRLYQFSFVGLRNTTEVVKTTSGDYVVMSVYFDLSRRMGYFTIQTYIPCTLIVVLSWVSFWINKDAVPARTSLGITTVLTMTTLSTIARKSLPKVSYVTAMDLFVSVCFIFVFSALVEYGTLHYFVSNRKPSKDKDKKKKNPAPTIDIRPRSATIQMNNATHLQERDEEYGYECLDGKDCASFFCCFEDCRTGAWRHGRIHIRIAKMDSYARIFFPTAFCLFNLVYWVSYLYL

SMILES	effect of intra-cerebellar furosemide on the rescue of PPI ([1]; furosemide 10 nmol intra-cerebellar microinjection)	rescue of METH-impaired PPI [1]	rescue of METH-impaired PPI ([1]; listed as C11)	% left after 1 hr. (HLM) [2] [%]	half-life at 10 μM ([2]; human, liver microsomes, pH 7.4, read-out: Half-life (min) (HLM))	selectivity for α6β3γ2 over other αxβ3γ2 receptors (α6β3γ2 receptor)	% left after 1 hr. (MLM) [3] [%]	half-life at 10 μM ([3]; mouse, liver microsomes, pH 7.4, read-out: Half-life (min) (MLM))	Half-life (min) (HLM) [2]	Half-life (min) (MLM) [3]
COc1ccc(-n2nc3c4cc(Cl)ccc4[nH]cc-3c2=O)cc1 [Compound 11, 8-Chloro-2-(4-methoxyphenyl)-2,5-dihydro-3H-pyrazolo[4,3-c]quinolin-3-one]	prevented	effective; also recorded: significantly rescued	significantly rescued	72.5 ± 0.11	135 ± 5	strongly modulates other GABAA receptor subtypes	69.2 ± 0.15	116 ± 5.2	–	–
[2H]C([2H])([2H])Oc1ccc(-n2nc3c4cc(Cl)ccc4[nH]cc-3c2=O)cc1 [DK-I-93-1, 8-Chloro-2-(4-methoxy-d3-phenyl)-2,5-dihydro-3H-pyrazolo[4,3-c]quinolin-3-one]	–	–	–	92.2 ± 0.15	–	–	85.53 ± 0.07	–	640 ± 126	263 ± 5.96
COc1ccc2c3nn(-c4ccc(OC)nc4)c(=O)c-3c[nH]c2c1 [DK-II-13-1, 7-Methoxy-2-(6-methoxypyridin-3-yl)-2,5-dihydro-3H-pyrazolo[4,3-c]quinolin-3-one]	–	–	–	93 ± 0.14	–	–	74.77 ± 0.12	–	794 ± 182	139.2 ± 5.8
COc1ccc(-n2nc3c4cc(Cl)ccc4[nH]cc-3c2=O)cn1 [DK-II-18-1, 8-Chloro-2-(6-methoxypyridin-3-yl)-2,5-dihydro-3H-pyrazolo[4,3-c]quinolin-3-one]	–	–	–	91.6 ± 0.10	–	–	85.6 ± 0.12	–	511 ± 44	265 ± 17
[2H]C([2H])([2H])Oc1ccc(-n2nc3c4ccc(Br)cc4[nH]cc-3c2=O)cn1 [DK-II-58-1, 7-Bromo-2-(6-methoxy-d3-pyridin-3-yl)-2,5-dihydro-3H-pyrazolo[4,3-c]quinolin-3-one]	–	–	–	97.8 ± 0.06	–	–	98.39 ± 0.06	–	2341 ± 0.001	4250 ± 0.001
[2H]C([2H])([2H])Oc1ccc(-n2nc3c4cc(Cl)ccc4[nH]cc-3c2=O)cn1 [DK-II-59-1, 8-Chloro-2-(6-methoxy-d3-pyridin-3-yl)-2,5-dihydro-3H-pyrazolo[4,3-c]quinolin-3-one]	–	–	–	93 ± 0.12	–	–	85.1 ± 0.10	–	725.8 ± 146	250.62 ± 13
[2H]C([2H])([2H])Oc1ccc(-n2nc3c4ccc(OC)cc4[nH]cc-3c2=O)cn1 [DK-II-60-1, 7-Methoxy-2-(6-methoxy-d3-pyridin-3-yl)-2,5-dihydro-3H-pyrazolo[4,3-c]quinolin-3-one]	–	–	–	92.5 ± 0.12	–	–	92.4 ± 0.12	–	592.5 ± 96	640 ± 102
